Test system: cucumber powdery mildew fungus (Sphaerotheca fuliginea, a QoI-resistant strain, cytochrome b position 143 mutated from glycine to alanine)
Type: in vivo
Settings: 200 ppm, QoI-resistant strain (Test Example 2, Comparative Example 2)

## Cn1nnn(-c2ccccc2COc2cccc(-c3ccccc3)c2)c1=O [1-[2-(biphenyl-3-yloxymethyl)-phenyl]-4-methyl-1,4-dihydrotetrazol-5-one]
  area of lesion spots on the treated plant relative to that on an untreated plant: ≥ 70%

Reference: patent US9867372B2, “Tetrazolinone compound and use of same” (SUMITOMO CHEMICAL COMPANY, LIMITED, priority 2013, dated 2018)
